Laboratory results as given in publication PMC10709440, “High-throughput ligand profile characterization in novel cell lines expressing seven heterologous insect olfactory receptors for the detection of volatile plant biomarkers” (Scientific Reports, 2023).
Where two headings read alike, the source gives them in different places.

Assays:
Drosophila OR13a = target: T1, Drosophila OR13a (Drosophila melanogaster, UniProt Q9VXL0); experiment: Calcium ion fluorescence (GCaMP6) assay, OR13a stable HEK293 cell line; type: cell-based; details: for OR13a response (VUAA1-normalized) at 1 μM / OR13a response (VUAA1-normalized) at 10 μM / OR13a response (VUAA1-normalized) at 100 μM: OR13a cell line
T1 construct: expressed in transfected cells
T1 sequence (Q9VXL0 1-418): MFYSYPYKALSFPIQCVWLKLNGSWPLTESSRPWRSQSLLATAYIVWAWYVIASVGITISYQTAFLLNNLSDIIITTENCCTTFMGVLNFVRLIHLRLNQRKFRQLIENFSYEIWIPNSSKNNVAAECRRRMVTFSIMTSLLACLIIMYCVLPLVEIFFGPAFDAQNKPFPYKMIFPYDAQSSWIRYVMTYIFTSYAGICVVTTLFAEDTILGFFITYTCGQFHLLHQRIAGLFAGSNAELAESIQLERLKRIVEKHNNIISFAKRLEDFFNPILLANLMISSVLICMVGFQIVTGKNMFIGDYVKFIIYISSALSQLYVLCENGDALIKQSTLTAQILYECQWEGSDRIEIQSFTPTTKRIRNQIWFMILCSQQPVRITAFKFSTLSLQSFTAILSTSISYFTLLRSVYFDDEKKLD
T1 sequence (Q9VNB5 1-486 partner): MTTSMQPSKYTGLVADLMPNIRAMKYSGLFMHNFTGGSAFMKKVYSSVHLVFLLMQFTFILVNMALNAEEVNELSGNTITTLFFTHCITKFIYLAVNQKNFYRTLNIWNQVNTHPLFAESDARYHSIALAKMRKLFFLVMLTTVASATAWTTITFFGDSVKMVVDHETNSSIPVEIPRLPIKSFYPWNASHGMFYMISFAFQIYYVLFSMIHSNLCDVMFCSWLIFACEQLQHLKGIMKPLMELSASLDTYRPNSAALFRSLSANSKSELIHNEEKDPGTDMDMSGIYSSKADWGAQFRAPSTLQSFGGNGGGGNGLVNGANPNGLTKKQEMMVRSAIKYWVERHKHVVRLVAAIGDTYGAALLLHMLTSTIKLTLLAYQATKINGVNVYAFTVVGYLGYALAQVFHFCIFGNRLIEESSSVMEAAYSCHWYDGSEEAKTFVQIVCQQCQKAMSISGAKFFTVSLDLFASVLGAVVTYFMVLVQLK
Summary of the method: (§1)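 Responses are VUAA1-normalized ΔF: each VOC-evoked calcium signal, (FMAX−F0)/F0 over 30 s after injection, divided by the same line's mean 50 µM VUAA1 response. Cells were doxycycline-induced HEK293 with GCaMP6 and the cognate Drosophila OR, in HEPES buffer pH 7.3; ligands tested 0.01–100 μM.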

Drosophila OR98a = target: T2, Drosophila OR98a (Drosophila melanogaster, UniProt Q9VAZ3); experiment: Calcium ion fluorescence (GCaMP6) assay, OR98a stable HEK293 cell line; type: cell-based; details: for OR98a response (VUAA1-normalized) at 1 μM / OR98a response (VUAA1-normalized) at 10 μM / OR98a response (VUAA1-normalized) at 100 μM / Average response: OR98a cell line; for OR98a Average response (VUAA1-normalized): 50 μM VUAA1 = 1; for Average response: average of biological replicates, fraction of VUAA1 response
T2 construct: expressed in transfected cells
T2 sequence (Q9VAZ3 1-397): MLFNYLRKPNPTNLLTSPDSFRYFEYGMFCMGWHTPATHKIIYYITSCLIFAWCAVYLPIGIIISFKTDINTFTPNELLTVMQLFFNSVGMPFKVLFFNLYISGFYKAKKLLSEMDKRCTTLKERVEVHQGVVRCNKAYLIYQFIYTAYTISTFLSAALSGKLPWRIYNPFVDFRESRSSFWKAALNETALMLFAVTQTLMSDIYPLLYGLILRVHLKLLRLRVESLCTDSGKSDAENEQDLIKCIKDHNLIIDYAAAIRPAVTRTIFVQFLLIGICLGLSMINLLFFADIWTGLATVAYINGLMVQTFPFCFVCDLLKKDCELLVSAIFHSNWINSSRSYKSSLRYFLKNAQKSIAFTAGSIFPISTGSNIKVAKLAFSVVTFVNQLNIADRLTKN
T2 sequence (Q9VNB5 1-486 partner): T1 sequence (Q9VNB5 1-486 partner)
Summary of the method: as §1

[1] = HEK293, read-out: OR13a Average response (VUAA1-normalized), 1 μM VOC, 50 μM VUAA1 = 1, responses not exceeding 0.05 considered 0
[2] = HEK293, read-out: OR13a Average response (VUAA1-normalized), 10 μM VOC, 50 μM VUAA1 = 1, responses not exceeding 0.05 considered 0
[3] = HEK293, read-out: OR13a Average response (VUAA1-normalized), 100 μM VOC, 50 μM VUAA1 = 1, responses not exceeding 0.05 considered 0
[4] = HEK293, read-out: OR13a response (VUAA1-normalized response), VOC concentration 1 μM
[5] = HEK293, read-out: OR13a response (VUAA1-normalized response), VOC concentration 10 μM
[6] = HEK293, read-out: OR13a response (VUAA1-normalized response), VOC concentration 100 μM
[7] = ligand concentration 1 (unit not given), threshold 0.05, below shown as 0
[8] = ligand concentration 10 (unit not given), threshold 0.05, below shown as 0
[9] = ligand concentration 100 (unit not given), threshold 0.05, below shown as 0
[10] = HEK293, read-out: Average response
[11] = HEK293, read-out: OR98a response (VUAA1-normalized response)
[12] = concentration 1, normalized fluorescence change, values below 0.05 threshold given as 0
[13] = concentration 10, normalized fluorescence change, values below 0.05 threshold given as 0
[14] = concentration 100, normalized fluorescence change, values below 0.05 threshold given as 0
[15] = HEK293, read-out: OR98a Average response (VUAA1-normalized)
[16] = 1 μM VOC, 50 μM VUAA1 = 1, responses not exceeding 0.05 considered 0
[17] = 10 μM VOC, 50 μM VUAA1 = 1, responses not exceeding 0.05 considered 0
[18] = 100 μM VOC, 50 μM VUAA1 = 1, responses not exceeding 0.05 considered 0
[19] = ligand concentration 1 (unit not given), 0.05 threshold, values below shown as 0
[20] = ligand concentration 10 (unit not given), 0.05 threshold, values below shown as 0
[21] = ligand concentration 100 (unit not given), 0.05 threshold, values below shown as 0

| Compound | activation at 1 µM (Drosophila OR13a; [1]) [%] | activation at 10 µM (Drosophila OR13a; [2]) [%] | activation at 100 µM (Drosophila OR13a; [3]) [%] | activation at 1 µM (Drosophila OR13a; [4]) [%] | activation at 10 µM (Drosophila OR13a; [5]) [%] | activation at 100 µM (Drosophila OR13a; [6]) [%] | DF norm AVERAGE OR13a (Drosophila OR13a; [7]) | DF norm AVERAGE OR13a (Drosophila OR13a; [8]) | DF norm AVERAGE OR13a (Drosophila OR13a; [9]) | activation at 1 µM (Drosophila OR98a; [10]) [%] | activation at 10 µM (Drosophila OR98a; [10]) [%] | activation at 100 µM (Drosophila OR98a; [10]) [%] | activation at 1 µM (Drosophila OR98a; [11]) [%] | activation at 10 µM (Drosophila OR98a; [11]) [%] | activation at 100 µM (Drosophila OR98a; [11]) [%] | DF norm AVERAGE OR98a (Drosophila OR98a; [7]) | DF norm AVERAGE OR98a (Drosophila OR98a; [8]) | DF norm AVERAGE OR98a (Drosophila OR98a; [9]) | further results |
| --- | --- | --- | --- | --- | --- | --- | --- | --- | --- | --- | --- | --- | --- | --- | --- | --- | --- | --- | --- |
| C=CCc1ccc(O)c(OC)c1 [eugenol] | 0 | 0 | 0 | 0 | 0 | 0 | 0 | 0 | 0 | 3.37 | 0 | 0 | 0 | 0 | 0 | 0 | 0 | 0 | – |
| CC1=CCC2C(C1)C2(C)C (stereo not drawn) [3-carene] | 0 | 0 | 0 | 0 | 0 | 0 | – | – | – | 0 | 1.26 | 0 | 0 | 0 | 0 | – | – | – | DF norm AVERAGE OR13a (Drosophila OR13a; [12]): 0; DF norm AVERAGE OR13a (Drosophila OR13a; [13]): 0; DF norm AVERAGE OR13a (Drosophila OR13a; [14]): 0; DF norm AVERAGE OR98a (Drosophila OR98a; [12]): 0; DF norm AVERAGE OR98a (Drosophila OR98a; [13]): 0; DF norm AVERAGE OR98a (Drosophila OR98a; [14]): 0 |
| COC(=O)c1ccccc1 [methyl benzoate] | 0 | 0 | 6 | – | – | – | 0 | 0 | 0.06097 | 7.5 | 0 | 12 | – | – | – | 0.07495 | 0 | 0.1166 | OR13a response (VUAA1-normalized) at 1 μM (Drosophila OR13a; VOC concentration 1 μM): 0.00; OR13a response (VUAA1-normalized) at 10 μM (Drosophila OR13a; VOC concentration 10 μM): 0.00; OR13a response (VUAA1-normalized) at 100 μM (Drosophila OR13a; VOC concentration 100 μM): 0.06; activation at 1 µM (Drosophila OR98a; [15]): 7%; activation at 10 µM (Drosophila OR98a; [15]): 0%; activation at 100 µM (Drosophila OR98a; [15]): 12%; OR98a response (VUAA1-normalized) at 1 μM (Drosophila OR98a; VOC concentration 1 μM): 0.075; OR98a response (VUAA1-normalized) at 10 μM (Drosophila OR98a; VOC concentration 10 μM): 0.00; OR98a response (VUAA1-normalized) at 100 μM (Drosophila OR98a; VOC concentration 100 μM): 0.12 |
| CCOC(=O)c1ccccc1 [ethyl benzoate] | 1.69 | 2.64 | 1.67 | 0 | 0 | 0 | 0 | 0 | 0 | 3 | 0 | 20 | 0 | 0 | 20 | 0 | 0 | 0.2048 | activation at 1 µM (Drosophila OR98a; [15]): 3%; activation at 10 µM (Drosophila OR98a; [15]): 0%; activation at 100 µM (Drosophila OR98a; [15]): 20% |
| CC/C=C\CCOC(C)=O [Z-3-hexenyl acetate] | – | – | – | – | – | – | – | – | – | – | – | – | – | – | – | – | – | – | OR13a response (VUAA1-normalized) at 1 μM (Drosophila OR13a; VOC concentration 1 μM): 0.00; OR13a response (VUAA1-normalized) at 10 μM (Drosophila OR13a; VOC concentration 10 μM): 0.00; OR13a response (VUAA1-normalized) at 100 μM (Drosophila OR13a; VOC concentration 100 μM): 0.09; OR98a response (VUAA1-normalized) at 1 μM (Drosophila OR98a; VOC concentration 1 μM): 0.00; OR98a response (VUAA1-normalized) at 10 μM (Drosophila OR98a; VOC concentration 10 μM): 0.00; OR98a response (VUAA1-normalized) at 100 μM (Drosophila OR98a; VOC concentration 100 μM): 0.10 |
| CC/C=C\CCO [Z3-hexenol] | – | – | – | – | – | – | – | – | – | – | – | – | – | – | – | – | – | – | OR13a Average response (VUAA1-normalized) (Drosophila OR13a; [16]): 0.04; OR13a Average response (VUAA1-normalized) (Drosophila OR13a; [17]): 0.06; OR13a Average response (VUAA1-normalized) (Drosophila OR13a; [18]): 0.00; DF norm AVERAGE OR13a (Drosophila OR13a; [19]): 0; DF norm AVERAGE OR13a (Drosophila OR13a; [20]): 0.05798; DF norm AVERAGE OR13a (Drosophila OR13a; [21]): 0; OR98a Average response (VUAA1-normalized) (Drosophila OR98a; 1 μM VOC): 0.00; OR98a Average response (VUAA1-normalized) (Drosophila OR98a; 10 μM VOC): 0.17; OR98a Average response (VUAA1-normalized) (Drosophila OR98a; 100 μM VOC): 0.11; Average response (Drosophila OR98a; cc. 1 µM): 0.00; Average response (Drosophila OR98a; cc. 10 µM): 0.17; Average response (Drosophila OR98a; cc. 100 µM): 0.11; DF norm AVERAGE OR98a (Drosophila OR98a; [19]): 0; DF norm AVERAGE OR98a (Drosophila OR98a; [20]): 0.167; DF norm AVERAGE OR98a (Drosophila OR98a; [21]): 0.1147 |
| (-)-alpha-cedrene | – | – | – | – | – | – | – | – | – | – | – | – | – | – | – | – | – | – | OR13a Average response (VUAA1-normalized) (Drosophila OR13a; [16]): 0.00; OR13a Average response (VUAA1-normalized) (Drosophila OR13a; [17]): 0.00; OR13a Average response (VUAA1-normalized) (Drosophila OR13a; [18]): 0.00; OR13a response (VUAA1-normalized response) (Drosophila OR13a; VOC concentration 1 μM): 0.00; OR13a response (VUAA1-normalized response) (Drosophila OR13a; VOC concentration 10 μM): 0.00; OR13a response (VUAA1-normalized response) (Drosophila OR13a; VOC concentration 100 μM): 0.00; DF norm AVERAGE OR13a (Drosophila OR13a; [12]): 0; DF norm AVERAGE OR13a (Drosophila OR13a; [13]): 0; DF norm AVERAGE OR13a (Drosophila OR13a; [14]): 0; OR98a response (VUAA1-normalized response) (Drosophila OR98a; VOC concentration 1 μM): 0.00; OR98a response (VUAA1-normalized response) (Drosophila OR98a; VOC concentration 10 μM): 0.00; OR98a response (VUAA1-normalized response) (Drosophila OR98a; VOC concentration 100 μM): 0.00; Average response (Drosophila OR98a; cc. 1 µM): 0.00; Average response (Drosophila OR98a; cc. 10 µM): 0.0421; Average response (Drosophila OR98a; cc. 100 µM): 0.0341; DF norm AVERAGE OR98a (Drosophila OR98a; [12]): 0; DF norm AVERAGE OR98a (Drosophila OR98a; [13]): 0; DF norm AVERAGE OR98a (Drosophila OR98a; [14]): 0 |
